Results as given in patent publication US10202331B2, “Antifibrinolytic compounds” (THROMBOLYTICS, LLC, priority 2014, dated 2019).

How the values were obtained:
[1] = biological target: Human Plasminogen (Homo sapiens, UniProt P00747); assay: Coupled in vitro fibrinolytic assay (fibrin clot lysis, absorbance at 405 nm); type: biochemical; conditions: for Potency TXA = 100: relative to TXA = 100
Description: The principles and procedures for these assays are as follows. • a) The coupled enzyme reactions in these fibrinolytic assays The assays are constituted of four principal reactions. These are: • (a) The thrombin catalyzed conversion of fibrinogen to the insoluble fibrin clot. Soluble human fibrinogen is a constituent of these assays. The assays are initiated by the addition of human Thrombin, causing the known partial proteolysis of fibrinogen to generate fibrin, which polymerizes to yield an insoluble, opaque “clot”. This is not the same as a fibrin clot obtained physiologically, as it lacks numerous attributes of a physiological clot. […] It is known to bind with a very high affinity to insoluble polymerized fibrin, while it has a much weaker affinity for Fibrinogen. […] All constituents are prepared at appropriate higher stock concentrations from which aliquots are taken and mixed to a final volume of 400 μliters. Included ingredients and their final (assay) concentration are: […] The plates are placed in the plate reader sample compartment maintained at 37°. Assays are conducted with or without pre incubating the fibrinolytic inhibitors with the protein(s) of interest overnight. These two protocols are as follows: • (a) Experiments without pre-incubation: These assays are constituted as follows: […] The assay solutions are mixed & stirred, and the micro titer plate placed in the plate reader. Assays are initiated by delivering a solution (20 μliters) containing Thrombin and either Urokinase or TPA. […] Following pre incubation, the assay solutions are warmed to 37° in the plate reader, and the assays carried out as in (a), above, being initiated with the addition of Thrombin and TPA or Urokinase. The role of Antifibrinolytics in slowing clot dissolution is illustrated in the FIGURE, which illustrates the type of data obtained from the coupled Fribrinolysis Assays described above in Protocols 3(a) and 3(b). […] This represents the formation of fibrin in the assays. […] As a result, an exponential decay in the amount of fibrin present in the assays is observed. This process is illustrated above over a 10 to 30 minute period in control assays, in the absence of antifibrinolytic compounds. As a rough approximation, these can be considered as two sequential exponential processes—the first, formation of fibrin, or the clot, preceding the second—clot breakdown or the fibrinolytic process. A rough measure of the efficacy of fibrinolytic inhibitors, as determined in these coupled assays, is the half-life of the pseudo exponential decline in the optical density of the assay mixtures in the second portion of the reaction. A more rigorous measure of the effectiveness of the compounds to inhibit fibrinolysis, and, by inference, physiological thrombolytic processes, can be obtained by recording the observed fibrinolytic half-lives as a function of the fibrinolytic inhibitor concentration.

[2] = system: Kringles; assay: Ability to substitute for EACA/TXA in binding to Kringles; conditions: as determined by the applicant
Description: The D-configuration is preferred in the terminal amino acid in order to protect these dipeptides from peptidases.

[3] = Compounds Preincubated with Plasminogen and Fibrinogen
[4] = Compounds Preincubated with Plasminogen and Fibrinogen, relative to control without inhibitor
[5] = No Preincubation, fibrin half life relative to control without inhibitor

Human Plasminogen, sequence (P00747 20-810 limits assumed): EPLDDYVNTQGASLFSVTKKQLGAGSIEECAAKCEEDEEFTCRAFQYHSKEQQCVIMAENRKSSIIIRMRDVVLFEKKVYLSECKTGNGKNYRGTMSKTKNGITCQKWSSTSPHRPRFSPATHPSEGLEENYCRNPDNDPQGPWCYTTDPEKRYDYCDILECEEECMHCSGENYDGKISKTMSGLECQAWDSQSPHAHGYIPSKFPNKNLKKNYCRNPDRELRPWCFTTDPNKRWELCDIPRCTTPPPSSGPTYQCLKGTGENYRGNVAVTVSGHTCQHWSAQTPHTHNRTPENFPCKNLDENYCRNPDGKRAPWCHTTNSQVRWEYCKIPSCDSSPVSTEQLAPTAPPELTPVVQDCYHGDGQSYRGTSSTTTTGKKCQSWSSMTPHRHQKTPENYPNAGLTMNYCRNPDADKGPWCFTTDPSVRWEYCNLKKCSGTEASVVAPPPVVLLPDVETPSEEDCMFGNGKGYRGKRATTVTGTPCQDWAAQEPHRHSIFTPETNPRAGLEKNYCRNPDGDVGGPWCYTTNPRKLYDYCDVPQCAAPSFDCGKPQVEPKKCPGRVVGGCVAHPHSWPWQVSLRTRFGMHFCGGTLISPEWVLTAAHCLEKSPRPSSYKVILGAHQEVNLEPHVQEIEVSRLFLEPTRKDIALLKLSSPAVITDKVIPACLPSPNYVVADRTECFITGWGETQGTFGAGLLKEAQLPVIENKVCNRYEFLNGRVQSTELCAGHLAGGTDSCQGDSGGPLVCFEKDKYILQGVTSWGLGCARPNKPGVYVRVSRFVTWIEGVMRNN

## NCCCCCC(=O)O [ACA, 6-aminohexanoic acid]
[1]; [3]
  Inhibition Percent: 41.8%
  Potency TXA = 100: 52
[1]; [4]
  Percent Of Control: 172%
[1]; No Preincubation
  Inhibition Percent: 37.5%
  Potency TXA = 100: 53
[1]; [5]
  Percent Of Control: 160%

## Cn1cncc1C[C@H](NC(=O)CCN)C(=O)O [Anserine]
[2]
  ability to substitute for EACA/TXA: substitute for EACA/TXA

## C[S+](C)CCCCCC(=O)O [ACA_S, 6-(S,S dimethylthio) Hexanoic acid sultane]
[1]; [3]
  Inhibition Percent: 88.5%
  Potency TXA = 100: 264
[1]; [4]
  Percent Of Control: 870%
[1]; No Preincubation
  Inhibition Percent: 70.0%
  Potency TXA = 100: 111
[1]; [5]
  Percent Of Control: 333%

## NCCC(=O)N[C@@H](Cc1c[nH]cn1)C(=O)O [Carnosine, β-Alanyl histidine]
[2]
  ability to substitute for EACA/TXA: substitute for EACA/TXA

## NC[C@H]1CC[C@H](C(=O)O)CC1 [TXA, trans-4-(aminomethyl)cyclohexanecarboxylic acid]
[1]; [3]
  Inhibition Percent: 69.7%
  Potency TXA = 100: 100
[1]; [4]
  Percent Of Control: 329%
[1]; No Preincubation
  Inhibition Percent: 66.6%
  Potency TXA = 100: 100
[1]; [5]
  Percent Of Control: 300%

## C[S+](C)C[C@H]1CC[C@H](C(=O)O)CC1.[Cl-] [TXA_S, trans-(4-dimethylthiomethyl) Cyclohexane-1-carboxylic acid sulfonium chloride]
[1]
  anti-fibrinolytic effect compared with ACA or TXA (in words): functions as well as TXA in inhibiting fibrinolysis
[1]; [3]
  Inhibition Percent: 90.6%
  Potency TXA = 100: 321
[1]; No Preincubation
  Inhibition Percent: 71.9%
  Potency TXA = 100: 119
[1]; [5]
  Percent Of Control: 356%
